Test results reported in article PMC4488288, “Inhibition of the Inositol Kinase Itpkb Augments Calcium Signaling in Lymphocytes and Reveals a Novel Strategy to Treat Autoimmune Disease” (PLoS ONE, 2015).

Biological target: T1, Itpkb (inositol trisphosphate 3' kinase B) (Mus musculus, UniProt B2RXC2)
T1 sequence (B2RXC2 1-942): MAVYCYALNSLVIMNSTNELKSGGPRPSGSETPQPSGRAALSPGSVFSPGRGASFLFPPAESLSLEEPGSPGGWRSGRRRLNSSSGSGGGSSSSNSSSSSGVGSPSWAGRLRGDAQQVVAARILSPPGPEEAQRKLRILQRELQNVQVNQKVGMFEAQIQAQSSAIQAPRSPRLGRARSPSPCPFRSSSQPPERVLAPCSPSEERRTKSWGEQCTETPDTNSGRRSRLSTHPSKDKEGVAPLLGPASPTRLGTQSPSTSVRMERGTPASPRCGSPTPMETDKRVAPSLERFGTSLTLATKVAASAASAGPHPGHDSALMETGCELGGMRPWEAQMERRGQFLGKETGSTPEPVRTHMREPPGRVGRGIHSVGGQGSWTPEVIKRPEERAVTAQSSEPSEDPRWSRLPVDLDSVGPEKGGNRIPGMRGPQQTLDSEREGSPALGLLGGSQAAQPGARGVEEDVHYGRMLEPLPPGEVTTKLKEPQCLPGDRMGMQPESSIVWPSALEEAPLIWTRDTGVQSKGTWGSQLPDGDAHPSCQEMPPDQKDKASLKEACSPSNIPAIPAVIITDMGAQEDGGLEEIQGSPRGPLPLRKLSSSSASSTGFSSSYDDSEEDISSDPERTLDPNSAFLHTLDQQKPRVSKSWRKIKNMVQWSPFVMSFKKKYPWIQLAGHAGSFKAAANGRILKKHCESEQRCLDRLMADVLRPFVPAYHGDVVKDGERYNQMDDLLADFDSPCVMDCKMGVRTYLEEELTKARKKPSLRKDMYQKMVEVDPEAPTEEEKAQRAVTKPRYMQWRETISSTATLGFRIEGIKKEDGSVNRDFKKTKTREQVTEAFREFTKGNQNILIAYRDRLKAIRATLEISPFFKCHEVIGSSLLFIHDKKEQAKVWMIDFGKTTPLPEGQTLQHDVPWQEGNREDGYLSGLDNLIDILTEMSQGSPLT
Experiment: Kinase-Glo assay with purified Itpkb ([…] Itpkb, […] ATP, […] IP3)
Format: biochemical

- IC50: 9 nM
Substance: GNF362
